Assay: xn = mol fraction of the nth substance listed

ClC(Cl)=C(Cl)Cl + COCCO
viscosity [mPa·s], 101.33 kPa
Settings | x1 = 0.1062 | x1 = 0.2046 | x1 = 0.3091 | x1 = 0.4453 | x1 = 0.5214 | x1 = 0.6184 | x1 = 0.7146 | x1 = 0.8062 | x1 = 0.9015
303.15 K | 1.365 | 1.273 | 1.178 | 1.066 | 1.009 | 0.943 | 0.89 | 0.846 | 0.808
313.15 K | 1.111 | 1.049 | 0.985 | 0.907 | 0.866 | 0.819 | 0.778 | 0.747 | 0.727

CCCCCCCCCCCCCC + COc1ccccc1
viscosity [mPa·s], 101 kPa
Settings | x1 = 0.1012 | x1 = 0.2027 | x1 = 0.3005 | x1 = 0.3936 | x1 = 0.4986 | x1 = 0.6001 | x1 = 0.6977 | x1 = 0.7959 | x1 = 0.8991
298.15 K | 0.996 | 1.035 | 1.105 | 1.241 | 1.311 | 1.38 | 1.45 | 1.521 | 1.697
303.15 K | 0.916 | 0.974 | 1.004 | 1.116 | 1.21 | 1.304 | 1.398 | 1.493 | 1.587
308.15 K | 0.855 | 0.907 | 0.932 | 1.028 | 1.089 | 1.149 | 1.209 | 1.27 | 1.331

ClC(Cl)=C(Cl)Cl + COc1ccccc1
303.15 K, 101.3 kPa
Settings | viscosity [mPa·s]
x2 = 0.0193 | 0.793
x2 = 0.039 | 0.79
x2 = 0.0561 | 0.792
x2 = 0.1158 | 0.781
x2 = 0.189 | 0.776
x2 = 0.2303 | 0.778
x2 = 0.2742 | 0.783
x2 = 0.3317 | 0.787
x2 = 0.3643 | 0.79
x2 = 0.4286 | 0.801
x2 = 0.4726 | 0.812
x2 = 0.6096 | 0.831
x2 = 0.6829 | 0.848
x2 = 0.7292 | 0.856
x2 = 0.7745 | 0.862
x2 = 0.8665 | 0.878
x2 = 0.8991 | 0.885
x2 = 0.9485 | 0.899

O=[N+]([O-])c1ccccc1 + COc1ccccc1
Settings | viscosity [mPa·s]
293.15 K, 101.33 kPa, x2 = 0.0982 | 1.864
293.15 K, 101.33 kPa, x2 = 0.1946 | 1.72
293.15 K, 101.33 kPa, x2 = 0.2868 | 1.597
293.15 K, 101.33 kPa, x2 = 0.3929 | 1.478
293.15 K, 101.33 kPa, x2 = 0.5767 | 1.407
293.15 K, 101.33 kPa, x2 = 0.6086 | 1.289
293.15 K, 101.33 kPa, x2 = 0.7073 | 1.23
293.15 K, 101.33 kPa, x2 = 0.8086 | 1.167
293.15 K, 101.33 kPa, x2 = 0.9081 | 1.117
298.15 K, 101 kPa, x2 = 0.1 | 1.556
298.15 K, 101 kPa, x2 = 0.2022 | 1.561
298.15 K, 101 kPa, x2 = 0.3039 | 1.454
298.15 K, 101 kPa, x2 = 0.3968 | 1.368
298.15 K, 101 kPa, x2 = 0.5018 | 1.281
298.15 K, 101 kPa, x2 = 0.6021 | 1.204
298.15 K, 101 kPa, x2 = 0.7032 | 1.146
298.15 K, 101 kPa, x2 = 0.8267 | 1.068
298.15 K, 101 kPa, x2 = 0.9043 | 1.045
298.15 K, 101.33 kPa, x2 = 0.0982 | 1.703
298.15 K, 101.33 kPa, x2 = 0.1946 | 1.613
298.15 K, 101.33 kPa, x2 = 0.2868 | 1.468
298.15 K, 101.33 kPa, x2 = 0.3929 | 1.371
298.15 K, 101.33 kPa, x2 = 0.5767 | 1.294
298.15 K, 101.33 kPa, x2 = 0.6086 | 1.201
298.15 K, 101.33 kPa, x2 = 0.7073 | 1.153
298.15 K, 101.33 kPa, x2 = 0.8086 | 1.074
298.15 K, 101.33 kPa, x2 = 0.9081 | 1.048
303.15 K, 101 kPa, x2 = 0.0972 | 1.555
303.15 K, 101 kPa, x2 = 0.1 | 1.43
303.15 K, 101 kPa, x2 = 0.1829 | 1.437
303.15 K, 101 kPa, x2 = 0.2022 | 1.443
303.15 K, 101 kPa, x2 = 0.2642 | 1.341
303.15 K, 101 kPa, x2 = 0.3039 | 1.339
303.15 K, 101 kPa, x2 = 0.3916 | 1.224
303.15 K, 101 kPa, x2 = 0.3968 | 1.263
303.15 K, 101 kPa, x2 = 0.4829 | 1.147
303.15 K, 101 kPa, x2 = 0.5018 | 1.186
303.15 K, 101 kPa, x2 = 0.583 | 1.08
303.15 K, 101 kPa, x2 = 0.6021 | 1.115
303.15 K, 101 kPa, x2 = 0.6854 | 1.022
303.15 K, 101 kPa, x2 = 0.7032 | 1.064
303.15 K, 101 kPa, x2 = 0.7963 | 0.981
303.15 K, 101 kPa, x2 = 0.8267 | 0.9924
303.15 K, 101 kPa, x2 = 0.8977 | 0.96
303.15 K, 101 kPa, x2 = 0.9043 | 0.9678
308.15 K, 101 kPa, x2 = 0.1 | 1.317
308.15 K, 101 kPa, x2 = 0.2022 | 1.326
308.15 K, 101 kPa, x2 = 0.3039 | 1.236
308.15 K, 101 kPa, x2 = 0.3968 | 1.165
308.15 K, 101 kPa, x2 = 0.5018 | 1.096
308.15 K, 101 kPa, x2 = 0.6021 | 1.031
308.15 K, 101 kPa, x2 = 0.7032 | 0.9838
308.15 K, 101 kPa, x2 = 0.8267 | 0.92
308.15 K, 101 kPa, x2 = 0.9043 | 0.8978
313.15 K, 101 kPa, x2 = 0.1 | 1.217
313.15 K, 101 kPa, x2 = 0.2022 | 1.224
313.15 K, 101 kPa, x2 = 0.3039 | 1.142
313.15 K, 101 kPa, x2 = 0.3968 | 1.078
313.15 K, 101 kPa, x2 = 0.5018 | 1.013
313.15 K, 101 kPa, x2 = 0.6021 | 0.9572
313.15 K, 101 kPa, x2 = 0.7032 | 0.9119
313.15 K, 101 kPa, x2 = 0.8267 | 0.8533
313.15 K, 101 kPa, x2 = 0.9043 | 0.8343
